Assay results taken from the kinase profiling compilation of Christmann-Franck et al. (2016).
Each block holds one compound with its values, some of them ahead of it.

Legend:
Assay in all cases: radiometric filter-binding kinase assay
[1] = molecular target: CSNK1D (human) (UniProt P48730)
[2] = molecular target: RPS6KA1 KD1 KD2 (human) (UniProt Q15418)
[3] = molecular target: RIPK2 (human) (UniProt O43353)
[4] = molecular target: JAK2 JH1 JH2 (human) (UniProt O60674)
[5] = molecular target: MAP3K1 (human) (UniProt Q13233)
[6] = molecular target: RPS6KA5 KD1 KD2 (human) (UniProt O75582)
[7] = molecular target: MARK3 (human) (UniProt P27448)
[8] = molecular target: HIPK2 (human) (UniProt Q9H2X6)
[9] = molecular target: PRKCA (human) (UniProt P17252)
[10] = molecular target: STK11 CAB39 STRADA (human) (UniProt Q9Y376+Q7RTN6+Q15831)
[11] = molecular target: YES1 (human) (UniProt P07947)
[12] = molecular target: AURKA (human) (UniProt O14965)
[13] = molecular target: HIPK1 (human) (UniProt Q86Z02)
[14] = molecular target: MAPKAPK3 (human) (UniProt Q16644)
[15] = test system: AKT2 (human), P31751 [S474D]
[16] = molecular target: MAP3K9 (human) (UniProt P80192)
[17] = molecular target: FLT1 (human) (UniProt P17948)
[18] = molecular target: MARK4 (human) (UniProt Q96L34)
[19] = molecular target: MAPK11 (human) (UniProt Q15759)
[20] = test system: RPS6KB1 (human), P23443 [T412E]
[21] = molecular target: NEK2 (human) (UniProt P51955)
[22] = molecular target: INSR (human) (UniProt P06213)
[23] = molecular target: NTRK1 (human) (UniProt P04629)
[24] = molecular target: CLK2 (human) (UniProt P49760)
[25] = molecular target: MAPK15 (human) (UniProt Q8TD08)
[26] = molecular target: INSRR (human) (UniProt P14616)
[27] = molecular target: NEK6 (human) (UniProt Q9HC98)
[28] = molecular target: MAPK1 (human) (UniProt P28482)
[29] = molecular target: IRAK4 (human) (UniProt Q9NWZ3)
[30] = molecular target: MAPK14 (human) (UniProt Q16539)
[31] = molecular target: SRPK1 (human) (UniProt Q96SB4)
[32] = molecular target: CSNK2A1 (human) (UniProt P68400)
[33] = molecular target: MKNK2 (human) (UniProt Q9HBH9)
[34] = molecular target: DYRK2 (human) (UniProt Q92630)
[35] = molecular target: BTK (human) (UniProt Q06187)

INSRR (human), sequence (P14616 whole entry, looked up): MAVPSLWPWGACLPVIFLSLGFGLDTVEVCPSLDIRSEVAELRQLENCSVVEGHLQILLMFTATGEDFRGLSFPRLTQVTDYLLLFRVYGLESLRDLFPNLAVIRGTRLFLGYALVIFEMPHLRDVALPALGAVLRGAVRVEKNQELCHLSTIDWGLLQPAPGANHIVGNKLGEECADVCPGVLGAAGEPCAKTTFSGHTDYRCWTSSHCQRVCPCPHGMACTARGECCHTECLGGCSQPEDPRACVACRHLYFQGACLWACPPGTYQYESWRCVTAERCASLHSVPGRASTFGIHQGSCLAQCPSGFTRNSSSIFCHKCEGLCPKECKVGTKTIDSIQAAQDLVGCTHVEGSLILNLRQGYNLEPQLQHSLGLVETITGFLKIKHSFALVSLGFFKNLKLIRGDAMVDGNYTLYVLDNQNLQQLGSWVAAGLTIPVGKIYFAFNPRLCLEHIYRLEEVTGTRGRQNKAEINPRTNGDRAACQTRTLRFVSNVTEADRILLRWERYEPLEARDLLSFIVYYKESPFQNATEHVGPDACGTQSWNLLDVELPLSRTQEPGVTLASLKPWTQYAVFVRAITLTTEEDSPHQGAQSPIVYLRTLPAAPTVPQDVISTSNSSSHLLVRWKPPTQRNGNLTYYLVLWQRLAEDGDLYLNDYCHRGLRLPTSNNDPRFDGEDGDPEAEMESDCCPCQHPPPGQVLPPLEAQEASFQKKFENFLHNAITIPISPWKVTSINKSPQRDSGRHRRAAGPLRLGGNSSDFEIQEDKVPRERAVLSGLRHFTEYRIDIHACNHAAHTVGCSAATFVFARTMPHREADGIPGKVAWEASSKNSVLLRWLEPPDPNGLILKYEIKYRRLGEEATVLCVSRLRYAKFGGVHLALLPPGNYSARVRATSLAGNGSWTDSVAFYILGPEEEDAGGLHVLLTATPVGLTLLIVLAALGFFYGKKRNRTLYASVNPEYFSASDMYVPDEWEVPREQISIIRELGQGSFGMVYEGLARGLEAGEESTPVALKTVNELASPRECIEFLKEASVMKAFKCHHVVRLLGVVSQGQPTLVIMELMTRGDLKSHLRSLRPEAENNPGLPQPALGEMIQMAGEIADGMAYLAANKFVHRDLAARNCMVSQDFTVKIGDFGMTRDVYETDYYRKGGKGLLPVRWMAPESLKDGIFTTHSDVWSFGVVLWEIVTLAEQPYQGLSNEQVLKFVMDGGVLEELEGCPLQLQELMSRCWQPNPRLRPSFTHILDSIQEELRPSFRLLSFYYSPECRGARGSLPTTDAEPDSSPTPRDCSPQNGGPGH
AKT2 (human), P31751 [S474D], sequence (P31751 whole entry S474D, looked up): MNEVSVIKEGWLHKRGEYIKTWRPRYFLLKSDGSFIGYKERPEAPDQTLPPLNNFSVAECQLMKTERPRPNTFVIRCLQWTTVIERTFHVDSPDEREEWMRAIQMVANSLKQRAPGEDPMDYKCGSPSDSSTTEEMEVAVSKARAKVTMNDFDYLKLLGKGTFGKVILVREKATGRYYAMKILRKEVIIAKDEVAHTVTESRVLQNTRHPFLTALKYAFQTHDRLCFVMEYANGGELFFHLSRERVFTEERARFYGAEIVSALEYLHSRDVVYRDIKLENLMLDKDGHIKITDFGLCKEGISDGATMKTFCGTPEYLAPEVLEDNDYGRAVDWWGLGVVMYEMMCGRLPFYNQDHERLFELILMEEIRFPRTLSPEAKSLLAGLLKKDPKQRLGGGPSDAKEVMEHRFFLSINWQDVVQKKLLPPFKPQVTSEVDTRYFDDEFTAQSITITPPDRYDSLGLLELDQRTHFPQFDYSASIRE
MAPKAPK3 (human), sequence (Q16644 whole entry, looked up): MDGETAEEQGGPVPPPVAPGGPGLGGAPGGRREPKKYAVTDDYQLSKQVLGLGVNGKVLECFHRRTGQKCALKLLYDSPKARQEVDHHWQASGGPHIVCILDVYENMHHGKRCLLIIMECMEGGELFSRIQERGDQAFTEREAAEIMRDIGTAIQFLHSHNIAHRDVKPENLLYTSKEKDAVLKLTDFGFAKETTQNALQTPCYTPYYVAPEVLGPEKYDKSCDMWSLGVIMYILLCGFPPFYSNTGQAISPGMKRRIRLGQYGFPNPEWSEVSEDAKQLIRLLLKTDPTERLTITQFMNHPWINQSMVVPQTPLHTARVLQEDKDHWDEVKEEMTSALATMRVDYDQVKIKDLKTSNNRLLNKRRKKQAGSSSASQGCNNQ
FLT1 (human), sequence (P17948 whole entry, looked up): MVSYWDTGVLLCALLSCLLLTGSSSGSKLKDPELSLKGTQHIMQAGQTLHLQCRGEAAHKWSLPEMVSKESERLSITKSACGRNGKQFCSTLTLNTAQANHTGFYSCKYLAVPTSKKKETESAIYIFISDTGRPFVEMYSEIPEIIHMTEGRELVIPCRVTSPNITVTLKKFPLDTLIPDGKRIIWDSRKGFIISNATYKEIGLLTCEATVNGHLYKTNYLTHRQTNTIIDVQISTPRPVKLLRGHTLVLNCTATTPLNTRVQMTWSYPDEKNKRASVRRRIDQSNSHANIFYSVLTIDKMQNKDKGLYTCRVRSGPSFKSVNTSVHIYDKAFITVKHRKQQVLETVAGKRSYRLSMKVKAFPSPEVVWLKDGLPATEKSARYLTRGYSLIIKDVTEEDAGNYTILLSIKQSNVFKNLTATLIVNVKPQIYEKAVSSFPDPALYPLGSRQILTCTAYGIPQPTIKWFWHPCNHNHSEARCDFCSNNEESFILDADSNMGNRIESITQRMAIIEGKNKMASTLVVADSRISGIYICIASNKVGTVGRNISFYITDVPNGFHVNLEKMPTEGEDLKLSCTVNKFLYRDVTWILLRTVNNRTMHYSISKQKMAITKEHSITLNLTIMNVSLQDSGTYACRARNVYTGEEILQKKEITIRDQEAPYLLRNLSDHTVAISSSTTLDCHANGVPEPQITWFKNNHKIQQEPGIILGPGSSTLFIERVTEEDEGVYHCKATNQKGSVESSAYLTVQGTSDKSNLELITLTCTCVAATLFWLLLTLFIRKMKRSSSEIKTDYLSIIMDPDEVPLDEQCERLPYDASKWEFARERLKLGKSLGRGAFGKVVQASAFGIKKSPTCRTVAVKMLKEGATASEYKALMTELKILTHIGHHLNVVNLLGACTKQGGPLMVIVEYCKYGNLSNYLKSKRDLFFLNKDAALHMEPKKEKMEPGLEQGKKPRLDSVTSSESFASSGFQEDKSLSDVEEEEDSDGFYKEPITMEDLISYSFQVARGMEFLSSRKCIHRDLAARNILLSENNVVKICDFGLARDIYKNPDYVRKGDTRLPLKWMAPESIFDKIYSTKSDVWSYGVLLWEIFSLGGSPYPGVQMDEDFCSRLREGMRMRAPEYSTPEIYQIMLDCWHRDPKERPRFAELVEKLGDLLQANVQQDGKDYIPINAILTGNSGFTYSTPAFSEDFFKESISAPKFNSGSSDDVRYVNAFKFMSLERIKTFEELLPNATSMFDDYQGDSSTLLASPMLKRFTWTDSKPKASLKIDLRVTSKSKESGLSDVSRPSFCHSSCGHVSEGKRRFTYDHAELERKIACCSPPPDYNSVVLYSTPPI
MAP3K1 (human), sequence (Q13233 whole entry, looked up): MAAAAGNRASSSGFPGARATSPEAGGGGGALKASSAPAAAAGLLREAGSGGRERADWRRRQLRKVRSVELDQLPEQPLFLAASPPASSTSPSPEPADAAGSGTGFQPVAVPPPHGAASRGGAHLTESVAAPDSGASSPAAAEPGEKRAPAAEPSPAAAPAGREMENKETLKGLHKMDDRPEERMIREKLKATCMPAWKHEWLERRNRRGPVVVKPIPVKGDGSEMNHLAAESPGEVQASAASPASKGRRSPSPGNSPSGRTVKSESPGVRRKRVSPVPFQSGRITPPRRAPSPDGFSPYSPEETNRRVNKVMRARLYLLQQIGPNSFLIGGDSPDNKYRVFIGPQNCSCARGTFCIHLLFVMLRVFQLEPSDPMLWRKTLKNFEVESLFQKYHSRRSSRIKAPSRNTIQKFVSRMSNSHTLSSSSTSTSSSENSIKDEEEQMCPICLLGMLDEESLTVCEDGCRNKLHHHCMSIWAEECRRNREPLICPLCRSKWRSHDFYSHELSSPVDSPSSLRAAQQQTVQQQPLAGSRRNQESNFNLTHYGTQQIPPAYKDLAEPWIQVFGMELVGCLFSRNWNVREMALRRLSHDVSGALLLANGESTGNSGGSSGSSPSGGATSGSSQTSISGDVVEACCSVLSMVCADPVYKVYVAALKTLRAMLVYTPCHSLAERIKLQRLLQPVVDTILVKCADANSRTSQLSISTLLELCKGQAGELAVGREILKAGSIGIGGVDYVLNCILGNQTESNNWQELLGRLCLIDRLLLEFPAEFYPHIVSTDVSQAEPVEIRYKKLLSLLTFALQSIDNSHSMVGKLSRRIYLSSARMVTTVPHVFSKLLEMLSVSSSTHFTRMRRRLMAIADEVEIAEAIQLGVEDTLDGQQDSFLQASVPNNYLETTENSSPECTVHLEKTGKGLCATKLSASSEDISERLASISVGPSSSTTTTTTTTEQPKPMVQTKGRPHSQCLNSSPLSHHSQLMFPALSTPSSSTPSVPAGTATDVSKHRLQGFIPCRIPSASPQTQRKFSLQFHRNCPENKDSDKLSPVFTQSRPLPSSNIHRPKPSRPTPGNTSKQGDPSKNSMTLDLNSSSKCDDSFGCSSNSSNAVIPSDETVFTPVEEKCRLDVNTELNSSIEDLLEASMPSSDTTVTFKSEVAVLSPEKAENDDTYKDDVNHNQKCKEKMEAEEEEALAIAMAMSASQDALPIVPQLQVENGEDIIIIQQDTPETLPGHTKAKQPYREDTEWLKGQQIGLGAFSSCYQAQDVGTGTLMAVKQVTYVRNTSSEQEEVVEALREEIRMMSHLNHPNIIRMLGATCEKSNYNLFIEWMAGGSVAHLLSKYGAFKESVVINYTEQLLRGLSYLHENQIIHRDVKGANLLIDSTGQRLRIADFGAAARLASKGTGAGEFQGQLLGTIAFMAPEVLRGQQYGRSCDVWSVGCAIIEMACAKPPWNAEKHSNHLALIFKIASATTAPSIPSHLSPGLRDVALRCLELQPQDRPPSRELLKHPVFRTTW

residual activity ([1]; compound 1.0 µM): 92% | residual activity ([1]; compound 10.0 µM): 95% | residual activity ([2]; compound 1.0 µM): 96% | residual activity ([2]; compound 10.0 µM): 73% | residual activity ([3]; compound 1.0 µM): 57% | residual activity ([3]; compound 10.0 µM): 38% | residual activity ([4]; compound 1.0 µM): 26% | residual activity ([4]; compound 10.0 µM): 31% | residual activity ([5]; compound 1.0 µM): 69% | residual activity ([5]; compound 10.0 µM): 85% | residual activity ([6]; compound 1.0 µM): 74% | residual activity ([6]; compound 10.0 µM): 53% | residual activity ([7]; compound 1.0 µM): 93% | residual activity ([7]; compound 10.0 µM): 102% | residual activity ([8]; compound 1.0 µM): 99% | residual activity ([8]; compound 10.0 µM): 114% | residual activity ([9]; compound 1.0 µM): 101% | residual activity ([9]; compound 10.0 µM): 94% | residual activity ([10]; compound 1.0 µM): 87% | residual activity ([10]; compound 10.0 µM): 85% | residual activity ([11]; compound 1.0 µM): 92% | residual activity ([11]; compound 10.0 µM): 93% | residual activity ([12]; compound 1.0 µM): 101% | residual activity ([12]; compound 10.0 µM): 108% | residual activity ([13]; compound 1.0 µM): 94% | residual activity ([13]; compound 10.0 µM): 97% | residual activity ([14]; compound 1.0 µM): 88% | residual activity ([15]; compound 10.0 µM): 100% | residual activity ([16]; compound 1.0 µM): 91% | residual activity ([16]; compound 10.0 µM): 89% | residual activity ([17]; compound 1.0 µM): 87% | residual activity ([17]; compound 10.0 µM): 107% | residual activity ([18]; compound 1.0 µM): 100% | residual activity ([18]; compound 10.0 µM): 86% | residual activity ([19]; compound 1.0 µM): 89% | residual activity ([19]; compound 10.0 µM): 103% | residual activity ([20]; compound 1.0 µM): 91% | residual activity ([20]; compound 10.0 µM): 96% | residual activity ([21]; compound 1.0 µM): 108% | residual activity ([21]; compound 10.0 µM): 103% | residual activity ([22]; compound 1.0 µM): 96% | residual activity ([22]; compound 10.0 µM): 96% | residual activity ([23]; compound 1.0 µM): 50% | residual activity ([24]; compound 1.0 µM): 75% | residual activity ([24]; compound 10.0 µM): 91% | residual activity ([26]; compound 1.0 µM): 74% | residual activity ([26]; compound 10.0 µM): 77% | residual activity ([27]; compound 1.0 µM): 83% | residual activity ([27]; compound 10.0 µM): 40% | residual activity ([28]; compound 1.0 µM): 83% | residual activity ([28]; compound 10.0 µM): 95% | residual activity ([29]; compound 1.0 µM): 90% | residual activity ([29]; compound 10.0 µM): 89% | residual activity ([30]; compound 1.0 µM): 93% | residual activity ([30]; compound 10.0 µM): 134% | residual activity ([31]; compound 1.0 µM): 90% | residual activity ([31]; compound 10.0 µM): 89% | residual activity ([32]; compound 1.0 µM): 97% | residual activity ([32]; compound 10.0 µM): 97% | residual activity ([33]; compound 1.0 µM): 94% | residual activity ([33]; compound 10.0 µM): 99% | residual activity ([34]; compound 1.0 µM): 73% | residual activity ([34]; compound 10.0 µM): 85%
Compound: CC(C)(C#N)c1ccc(N2C(=O)OCc3cnc4ccc(-c5cnc6ccccc6c5)cc4c32)cc1
residual activity ([25]; compound 1.0 µM): 73% | residual activity ([25]; compound 10.0 µM): 67%

residual activity ([1]; compound 1.0 µM): 99% | residual activity ([2]; compound 1.0 µM): 110% | residual activity ([2]; compound 5.0 µM): 112% | residual activity ([3]; compound 1.0 µM): 101% | residual activity ([3]; compound 5.0 µM): 112% | residual activity ([4]; compound 1.0 µM): 116% | residual activity ([4]; compound 5.0 µM): 98% | residual activity ([5]; compound 1.0 µM): 112% | residual activity ([5]; compound 5.0 µM): 120% | residual activity ([35]; compound 1.0 µM): 117% | residual activity ([35]; compound 5.0 µM): 85% | residual activity ([6]; compound 1.0 µM): 110% | residual activity ([6]; compound 5.0 µM): 106% | residual activity ([7]; compound 1.0 µM): 123% | residual activity ([7]; compound 5.0 µM): 98% | residual activity ([8]; compound 1.0 µM): 124% | residual activity ([8]; compound 5.0 µM): 113% | residual activity ([9]; compound 1.0 µM): 108% | residual activity ([9]; compound 5.0 µM): 108% | residual activity ([10]; compound 1.0 µM): 132% | residual activity ([10]; compound 5.0 µM): 106% | residual activity ([11]; compound 5.0 µM): 109% | residual activity ([12]; compound 5.0 µM): 115% | residual activity ([13]; compound 1.0 µM): 114% | residual activity ([13]; compound 5.0 µM): 106% | residual activity ([14]; compound 1.0 µM): 135% | residual activity ([14]; compound 5.0 µM): 58% | residual activity ([15]; compound 1.0 µM): 101% | residual activity ([15]; compound 5.0 µM): 92% | residual activity ([16]; compound 1.0 µM): 117% | residual activity ([16]; compound 5.0 µM): 95% | residual activity ([17]; compound 1.0 µM): 109% | residual activity ([17]; compound 5.0 µM): 98% | residual activity ([18]; compound 1.0 µM): 111% | residual activity ([18]; compound 5.0 µM): 93% | residual activity ([19]; compound 1.0 µM): 111% | residual activity ([19]; compound 5.0 µM): 121% | residual activity ([20]; compound 1.0 µM): 103% | residual activity ([20]; compound 5.0 µM): 106% | residual activity ([21]; compound 1.0 µM): 110% | residual activity ([23]; compound 1.0 µM): 106% | residual activity ([23]; compound 5.0 µM): 83% | residual activity ([24]; compound 1.0 µM): 90% | residual activity ([24]; compound 5.0 µM): 93% | residual activity ([26]; compound 1.0 µM): 107% | residual activity ([26]; compound 5.0 µM): 95% | residual activity ([27]; compound 1.0 µM): 113% | residual activity ([27]; compound 5.0 µM): 82% | residual activity ([28]; compound 1.0 µM): 90% | residual activity ([28]; compound 5.0 µM): 83% | residual activity ([29]; compound 1.0 µM): 106% | residual activity ([29]; compound 5.0 µM): 97% | residual activity ([30]; compound 1.0 µM): 105% | residual activity ([30]; compound 5.0 µM): 111% | residual activity ([31]; compound 1.0 µM): 111% | residual activity ([31]; compound 5.0 µM): 106% | residual activity ([32]; compound 1.0 µM): 117% | residual activity ([32]; compound 5.0 µM): 106% | residual activity ([33]; compound 1.0 µM): 113% | residual activity ([33]; compound 5.0 µM): 117% | residual activity ([34]; compound 1.0 µM): 113% | residual activity ([34]; compound 5.0 µM): 101%
Compound: C=C1C(=O)OC2C1CC/C(C)=C/CCC1(C)OC21 (centres undefined)
residual activity ([25]; compound 1.0 µM): 98% | residual activity ([25]; compound 5.0 µM): 119%
